Data on six compounds can be found in US20010039026A1, “Assay method” (priority 2000, published 2001).

For experiment [1], the system named is CXCR4 dependent primary and lab-adapted HIV viruses. As to conditions: cited from earlier work.
In the next experiment the test system is CCR5-tropic strains. Conditions: cited from earlier work.
Experiment [2] concerns env-mediated cell-cell fusion. Conditions: cited from earlier work.
The target of a further experiment is T1, CCCKR5 (Homo sapiens, UniProt P51681).
T1 construct: expressed in transfected cells; host or cells: CHO-K1 (stably transfected)
As to conditions: transfected CHO-K1 cells; cited from earlier work.

In a further experiment the test system is primary HIV isolates. As to conditions: cited from earlier work.
The subject of experiment [3] is primary, nonsyncytium-inducing (NSI) HIV-1 strains. Conditions: primary NSI HIV-1 strains; cited from earlier work.
For experiment [4], the target named is T2, CCR5 (Homo sapiens, UniProt P51681).
T2 construct: antagonist of CCR5 function in monocytes; endogenous in cells; host or cells: monocytes
As to conditions: described by others in model systems; read-out: dissociation constant (Kd) of the interaction of CCR5 with gp120; cited from earlier work.

Experiment [5] addresses T2, CCR5. In words: Dissociation constant of the CCR5/gp120 interaction, applicant's work with recombinant proteins. Format: binding.

Like-named read-outs stand apart in the source and are kept apart here.

For `c1cc(CN2CCCNCCNCCCNCC2)ccc1CN1CCCNCCNCCCNCC1` [AMD3100], in experiment [1], the “inhibition of infection of susceptible cultures” value was “inhibit infection”.

For `Cc1ccc(-c2ccc3c(c2)C=C(C(=O)Nc2ccc(C[N+](C)(C)C4CCOCC4)cc2)CCC3)cc1.[Cl-]` [TAK 779], the “block of entry of CCR5-tropic strains” value with CCR5-tropic strains is reported as “blocks entry”.

Regarding “MIP-1-α: macrophage inflammatory protein, β-chemokine ligand of CCR5”, the “block of env-mediated cell-cell fusion” value in experiment [2] was “block env-mediated cell-cell fusion”. In addition, the “agonist activity at CCCKR5” value with CCCKR5 is given as “most potent agonist”. Besides, in the experiment on primary HIV isolates, the “suppression of replication of primary HIV isolates” value (“suppression” for short) is given as “suppress replication”. For the same compound, the “inhibition of infection of CD4(+) cells at the virus entry stage” value in experiment [3] is recorded as “inhibit infection”.

As for “RANTES: protein which is regulated upon activation and is normal T-cell expressed and secreted”, the “block of env-mediated cell-cell fusion” value in experiment [2] was “block env-mediated cell-cell fusion”. Also, the “agonist activity at CCCKR5” value with CCCKR5 is “active at physiologic concentrations”. In addition, the “suppression” value in the experiment with primary HIV isolates is on record as “suppress replication”. Besides, the “inhibition of infection of CD4(+) cells at the virus entry stage” value in experiment [3] is reported as “inhibit infection”.

In the case of “SDF-1: chemokine shown to suppress replication of primary HIV isolates”, the “suppression” value with primary HIV isolates is listed as “suppress replication”.

“gp120: envelope protein of HIV that is required for viral entry into the target cells”: the Kd is ~0.001 µM in the experiment with CCR5 [4] and 0.1 to 1 µM with CCR5 [5].
